Measured values reported in the NIST ThermoML archive (doi:10.1016/j.jct.2004.12.008).

Assay: xn = mol fraction of the nth substance listed
Details: 101 kPa, Liquid

O=[N+]([O-])c1ccccc1 [nitrobenzene] + Cc1ccccc1C
Details | mass density [kg/m3]
293.15 K, x2 = 0 | 1202.95
293.15 K, x2 = 0.0498 | 1184.47
293.15 K, x2 = 0.1289 | 1155.75
293.15 K, x2 = 0.1892 | 1134.33
293.15 K, x2 = 0.2532 | 1112.04
293.15 K, x2 = 0.3234 | 1088.07
293.15 K, x2 = 0.3891 | 1066.07
293.15 K, x2 = 0.4421 | 1048.61
293.15 K, x2 = 0.4923 | 1032.31
293.15 K, x2 = 0.5534 | 1012.76
293.15 K, x2 = 0.6132 | 993.93
293.15 K, x2 = 0.6734 | 975.26
293.15 K, x2 = 0.7321 | 957.32
293.15 K, x2 = 0.7931 | 938.95
293.15 K, x2 = 0.8523 | 921.38
293.15 K, x2 = 0.9323 | 898.02
303.15 K, x2 = 0 | 1193.56
303.15 K, x2 = 0.0535 | 1173.86
303.15 K, x2 = 0.1123 | 1152.62
303.15 K, x2 = 0.1782 | 1129.29
303.15 K, x2 = 0.2423 | 1107.06
303.15 K, x2 = 0.3139 | 1082.76
303.15 K, x2 = 0.3687 | 1064.49
303.15 K, x2 = 0.4348 | 1042.84
303.15 K, x2 = 0.5023 | 1021.14
303.15 K, x2 = 0.5681 | 1000.36
303.15 K, x2 = 0.6189 | 984.56
303.15 K, x2 = 0.6892 | 963.04
303.15 K, x2 = 0.7422 | 947.07
303.15 K, x2 = 0.8021 | 929.26
303.15 K, x2 = 0.8731 | 908.5
303.15 K, x2 = 0.9298 | 892.17
313.15 K, x2 = 0 | 1183.37
313.15 K, x2 = 0.0621 | 1160.16
313.15 K, x2 = 0.1298 | 1135.44
313.15 K, x2 = 0.1924 | 1113.1
313.15 K, x2 = 0.2499 | 1092.98
313.15 K, x2 = 0.3234 | 1067.82
313.15 K, x2 = 0.3891 | 1045.81
313.15 K, x2 = 0.4348 | 1030.76
313.15 K, x2 = 0.5109 | 1006.14
313.15 K, x2 = 0.5782 | 984.82
313.15 K, x2 = 0.6328 | 967.81
313.15 K, x2 = 0.6902 | 950.21
313.15 K, x2 = 0.7591 | 929.44
313.15 K, x2 = 0.8244 | 910.1
313.15 K, x2 = 0.8823 | 893.22
313.15 K, x2 = 0.9357 | 877.88
323.15 K, x2 = 0 | 1172.38
323.15 K, x2 = 0.0634 | 1147.74
323.15 K, x2 = 0.1244 | 1124.62
323.15 K, x2 = 0.1824 | 1103.12
323.15 K, x2 = 0.2311 | 1085.44
323.15 K, x2 = 0.2893 | 1064.7
323.15 K, x2 = 0.3214 | 1053.45
323.15 K, x2 = 0.3855 | 1031.35
323.15 K, x2 = 0.4345 | 1014.79
323.15 K, x2 = 0.4902 | 996.28
323.15 K, x2 = 0.5689 | 970.68
323.15 K, x2 = 0.6321 | 950.58
323.15 K, x2 = 0.7024 | 928.68
323.15 K, x2 = 0.7842 | 903.78
323.15 K, x2 = 0.8725 | 877.55
323.15 K, x2 = 0.9432 | 857.03
333.15 K, x2 = 0 | 1160.59
333.15 K, x2 = 0.0598 | 1135.86
333.15 K, x2 = 0.1132 | 1114.33
333.15 K, x2 = 0.1935 | 1082.9
333.15 K, x2 = 0.2491 | 1061.75
333.15 K, x2 = 0.3011 | 1042.41
333.15 K, x2 = 0.3672 | 1018.4
333.15 K, x2 = 0.4189 | 1000.06
333.15 K, x2 = 0.4783 | 979.42
333.15 K, x2 = 0.5389 | 958.84
333.15 K, x2 = 0.5901 | 941.8
333.15 K, x2 = 0.6598 | 919.09
333.15 K, x2 = 0.7243 | 898.58
333.15 K, x2 = 0.7929 | 877.26
333.15 K, x2 = 0.8687 | 854.25
333.15 K, x2 = 0.9244 | 837.72
343.15 K, x2 = 0 | 1148
343.15 K, x2 = 0.0587 | 1121.63
343.15 K, x2 = 0.1321 | 1089.78
343.15 K, x2 = 0.1849 | 1067.6
343.15 K, x2 = 0.2378 | 1045.95
343.15 K, x2 = 0.3012 | 1020.73
343.15 K, x2 = 0.3519 | 1001.09
343.15 K, x2 = 0.4242 | 973.86
343.15 K, x2 = 0.4981 | 946.94
343.15 K, x2 = 0.5533 | 927.38
343.15 K, x2 = 0.6232 | 903.27
343.15 K, x2 = 0.6623 | 890.09
343.15 K, x2 = 0.7429 | 863.56
343.15 K, x2 = 0.8122 | 841.44
343.15 K, x2 = 0.8823 | 819.66
343.15 K, x2 = 0.9422 | 801.51
353.15 K, x2 = 0 | 1134.61
353.15 K, x2 = 0.0623 | 1103.66
353.15 K, x2 = 0.1133 | 1079.21
353.15 K, x2 = 0.1892 | 1044.18
353.15 K, x2 = 0.2489 | 1017.71
353.15 K, x2 = 0.3129 | 990.32
353.15 K, x2 = 0.3798 | 962.71
353.15 K, x2 = 0.4124 | 949.61
353.15 K, x2 = 0.483 | 922.01
353.15 K, x2 = 0.5345 | 902.52
353.15 K, x2 = 0.6084 | 875.41
353.15 K, x2 = 0.6631 | 855.98
353.15 K, x2 = 0.7249 | 834.64
353.15 K, x2 = 0.7931 | 811.8
353.15 K, x2 = 0.852 | 792.66
353.15 K, x2 = 0.9123 | 773.59
